Reference: BindingDB's records for doi:10.1016/j.bmc.2008.03.004 (Florida Atlantic University, 2009)

Target: Collagenase 3 (Homo sapiens, UniProt P45452)
Test: Inhibition of human recombinant MMP13 expressed in Escherichia coli

COc1cc(-n2nc(C)c3c2OC(=N)C(C#N)C3c2ccccc2)c(Cl)c(Br)c1O (stereo unspecified) [6-amino-1-(3-bromo-2-chloro-4-hydroxy-5-methoxyphenyl)-3-methyl-4-phenyl-1,4-dihydropyrano[2,3-c]pyrazole-5-carbonitrile]
IC50: > 40 µM
